The target of the assay is T1, p101/p110γ protein (PI3Kγ) (Homo sapiens, UniProt P48736).
T1 construct: HA; made in house; host or cells: Spodoptera frugiperda (Sf9) cells, baculovirus coinfection
Put plainly: PI3Kγ In Vitro Kinase Assay. The assay is classed as biochemical. The settings on record: purified recombinant p101/p110γ with G protein β1/γ2 subunits; 20 μM ATP, 25 μM PIP2; 20 minutes at room temperature; radioactive PIP3 readout. The method, boiled down: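 Baculovirus/Sf9-expressed p101/p110γ (~2.7 nM) with G protein β1/γ2, 20 μM ATP plus [γ-32P]ATP, PIP2/PE micelles (25 μM PIP2, 300 μM PE, 10 mM MgCl2) in HEPES buffer. Reaction 20 min at room temperature, stopped with H3PO4; radiolabelled PIP3 counted on filters to derive IC50 (μM).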

Each structure is given as a SMILES string. pIC50: −log10 of the molar value.

T1 sequence (P48736 whole entry, species assumed): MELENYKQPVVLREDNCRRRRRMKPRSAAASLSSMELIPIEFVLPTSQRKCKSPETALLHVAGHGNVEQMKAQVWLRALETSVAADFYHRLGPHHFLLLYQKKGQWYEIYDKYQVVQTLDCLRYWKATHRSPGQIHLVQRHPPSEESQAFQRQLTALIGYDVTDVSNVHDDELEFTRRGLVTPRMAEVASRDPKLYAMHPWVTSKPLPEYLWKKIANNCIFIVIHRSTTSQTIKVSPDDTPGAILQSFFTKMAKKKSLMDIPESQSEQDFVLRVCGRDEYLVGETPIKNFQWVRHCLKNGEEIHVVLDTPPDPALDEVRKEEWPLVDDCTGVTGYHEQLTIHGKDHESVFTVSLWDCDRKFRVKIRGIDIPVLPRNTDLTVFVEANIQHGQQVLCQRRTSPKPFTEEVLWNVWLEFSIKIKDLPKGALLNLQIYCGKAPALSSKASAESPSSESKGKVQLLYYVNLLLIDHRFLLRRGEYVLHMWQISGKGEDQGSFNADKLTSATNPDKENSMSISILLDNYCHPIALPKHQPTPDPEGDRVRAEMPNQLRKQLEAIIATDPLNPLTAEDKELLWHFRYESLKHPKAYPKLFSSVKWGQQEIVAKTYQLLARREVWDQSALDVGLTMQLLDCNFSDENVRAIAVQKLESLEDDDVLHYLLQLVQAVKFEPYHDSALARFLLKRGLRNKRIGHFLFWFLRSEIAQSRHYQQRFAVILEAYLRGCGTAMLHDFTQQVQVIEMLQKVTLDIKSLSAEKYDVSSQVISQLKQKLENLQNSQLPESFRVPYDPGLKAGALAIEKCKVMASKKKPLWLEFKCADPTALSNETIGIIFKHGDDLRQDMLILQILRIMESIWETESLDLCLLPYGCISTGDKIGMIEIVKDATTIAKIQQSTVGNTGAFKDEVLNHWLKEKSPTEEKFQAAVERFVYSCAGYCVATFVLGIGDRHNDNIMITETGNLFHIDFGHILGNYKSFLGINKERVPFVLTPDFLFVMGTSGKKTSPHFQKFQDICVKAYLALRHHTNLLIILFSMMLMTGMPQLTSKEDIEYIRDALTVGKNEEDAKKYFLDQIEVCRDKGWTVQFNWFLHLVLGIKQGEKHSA
T1 sequence (Q8WYR1 whole entry partner, species assumed): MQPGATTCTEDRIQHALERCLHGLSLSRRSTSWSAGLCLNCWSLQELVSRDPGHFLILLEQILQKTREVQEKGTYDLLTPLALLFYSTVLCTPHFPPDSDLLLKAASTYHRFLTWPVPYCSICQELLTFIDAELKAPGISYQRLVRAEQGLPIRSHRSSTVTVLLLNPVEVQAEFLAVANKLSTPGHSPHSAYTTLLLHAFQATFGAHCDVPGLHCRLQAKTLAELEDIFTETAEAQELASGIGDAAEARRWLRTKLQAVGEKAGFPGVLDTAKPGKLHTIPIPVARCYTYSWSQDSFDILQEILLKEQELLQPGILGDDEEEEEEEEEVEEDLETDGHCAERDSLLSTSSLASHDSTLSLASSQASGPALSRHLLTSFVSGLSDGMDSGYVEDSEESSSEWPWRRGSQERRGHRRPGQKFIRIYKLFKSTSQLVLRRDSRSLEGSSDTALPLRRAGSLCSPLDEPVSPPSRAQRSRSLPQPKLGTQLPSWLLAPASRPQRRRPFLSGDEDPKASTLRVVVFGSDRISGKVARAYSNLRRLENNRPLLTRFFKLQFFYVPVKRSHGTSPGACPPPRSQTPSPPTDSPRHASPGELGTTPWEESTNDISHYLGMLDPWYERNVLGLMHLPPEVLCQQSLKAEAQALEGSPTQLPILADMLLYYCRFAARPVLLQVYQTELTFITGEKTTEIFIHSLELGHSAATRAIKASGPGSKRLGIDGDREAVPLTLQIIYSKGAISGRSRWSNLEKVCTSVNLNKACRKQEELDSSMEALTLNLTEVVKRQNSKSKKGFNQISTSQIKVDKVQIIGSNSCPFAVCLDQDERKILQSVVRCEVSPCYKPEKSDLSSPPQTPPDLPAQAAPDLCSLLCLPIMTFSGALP

For orientation: pIC50 means the negative decadic logarithm of the IC50, by convention in mol/L. Consider `O=C1NC(=S)SC1=Cc1ccc2c(c1)N(C(=O)Nc1ccc(Oc3ccccc3)cc1)CCO2` [Example 66, 6-(4-Oxo-2-thioxo-thiazolidin-5-ylidenemethyl)-2,3-dihydro-1,4-benzoxazine-4-carboxylic acid (4-phenoxy-phenyl)-amide], for which the pIC50 was 7.10.
The result for `COc1cc(NC(=O)N2CCOc3ccc(C=C4SC(=S)NC4=O)cc32)cc(OC)c1` [Example 67, 6-(4-Oxo-2-thioxo-thiazolidin-5-ylidenemethyl)-2,3-dihydro-1,4-benzoxazine-4-carboxylic acid (3,5-dimethoxy-phenyl)-amide] reads 7.41; that for `O=C1NC(=S)SC1=Cc1ccc2c(c1)N(C(=O)NC1CCCC1)CCO2` [Example 68, 6-(4-Oxo-2-thioxo-thiazolidin-5-ylidenemethyl)-2,3-dihydro-1,4-benzoxazine-4-carboxylic acid cyclopentylamide], 8.10; that for `O=C1NC(=S)SC1=Cc1ccc2c(c1)N(C(=O)Oc1cccc3ccccc13)CCO2` [Example 69, 6-(4-Oxo-2-thioxo-thiazolidin-5-ylidenemethyl)-2,3-dihydro-1,4-benzoxazine-4-carboxylic acid naphthalen-1-yl ester], 8.22.
As for `O=C1NC(=S)SC1=Cc1ccc2c(c1)N(C(=O)CCc1ccccc1)CCO2` [Example 70, 5-[4-(3-Phenyl-propionyl)-3,4-dihydro-2H-1,4-benzoxazin-6-ylmethylene]-2-thioxo-thiazolidin-4-one], the negative-log IC50 (pIC50) was 7.51.
Regarding `O=C1NC(=S)SC1=Cc1ccc2c(c1)N(C(=O)c1ccc3c(c1)OCO3)CCO2` [Example 71, 5-[4-(1,3-Benzodioxole-5-carbonyl)-3,4-dihydro-2H-1,4-benzoxazin-6-ylmethylene]-2-thioxo-thiazolidin-4-one], the pIC50 was 6.03.
In the case of `CS(=O)(=O)c1ccc(C(=O)N2CCOc3ccc(C=C4SC(=S)NC4=O)cc32)cc1` [Example 72] it was 6.76.
In the case of `COc1cc(CC(=O)N2CCOc3ccc(C=C4SC(=S)NC4=O)cc32)cc(OC)c1` [Example 73], the negative logarithm of the IC50 (pIC50) was 6.94.
In the case of `CN1CCN(Cc2ccc(C(=O)N3CCOc4ccc(C=C5SC(=S)NC5=O)cc43)cc2)CC1` [Example 74] it was 6.94; in that of `COc1ccc(NC(=O)N2CCOc3ccc(C=C4SC(=S)NC4=O)cc32)cc1OC` [Example 75, 6-(4-Oxo-2-thioxo-thiazolidin-5-ylidenemethyl)-2,3-dihydro-benzo[14]oxazine-4-carboxylic acid (3,4-dimethoxy-phenyl)-aniide], 7.85; in that of `O=C1NC(=S)SC1=Cc1ccc2c(c1)N(C(=O)Nc1cc(Cl)cc(Cl)c1)CCO2` [Example 76, 6-(4-Oxo-2-thioxo-thiazolidin-5-ylidenemethyl)-2,3-dihydro-benzo[14]oxazine-4-carboxylic acid (3,5-dichloro-phenyl)-amide], 7.48.
For `O=C1NC(=S)SC1=Cc1ccc2c(c1)N(C(=O)Nc1ccc(Cl)cc1)CCO2` [Example 77, 6-(4-Oxo-2-thioxo-thiazolidin-5-ylidenemethyl)-2,3-dihydro-benzo[1,4]oxazine-4-carboxylic acid (4-chloro-phenyl)-amide], the pIC50 was 8.70.
For `O=C1NC(=S)SC1=Cc1ccc2c(c1)N(C(=O)Nc1ccc(Cl)c(Cl)c1)CCO2` [Example 78, 6-(4-Oxo-2-thioxo-thiazolidin-5-ylidenemethyl)-2,3-dihydro-benzo[1,4]oxazine-4-carboxylic acid (3,4-dichloro-phenyl)-amide], the pIC50 was 8.30.
In the case of `Cc1cc(C)cc(NC(=O)N2CCOc3ccc(C=C4SC(=S)NC4=O)cc32)c1` [Example 79, 6-(4-Oxo-2-thioxo-thiazolidin-5-ylidenemethyl)-2,3-dihydro-benzo[14]oxazine-4-carboxylic acid (3,5-dimethyl-phenyl)-amide] it was 8.05; in that of `O=C1NC(=S)SC1=Cc1ccc2c(c1)N(C(=O)Nc1cccc(Cl)c1)CCO2` [Example 80, 6-(4-Oxo-2-thioxo-thiazolidin-5-ylidenemethyl)-2,3-dihydro-benzo[1,4]oxazine-4-carboxylic acid (3-chloro-phenyl)-amide], 8.70; in that of `CC(C)(C)c1cc(C(=O)N2CCOc3ccc(C=C4SC(=S)NC4=O)cc32)cc(C(C)(C)C)c1` [Example 81, 5-[4-(3,5-Di-tert-butyl-benzoyl)-3,4-dihydro-2H-benzo[1,4]oxazin-6-ethylene]-2-thioxo-thiazolidin-4-one], 5.42.
The result for `O=C1NC(=S)SC1=Cc1ccc2c(c1)N(C(=O)CCCc1ccccc1)CCO2` [Example 82, 5-[4-(4-Phenyl-butryl)-3,4-dihydro-2H-benzo[1,4]oxazin-6-ethylene]-2-thioxo-thiazolidin-4-one] reads 9.00; that for `O=C1NC(=S)SC1=Cc1ccc2c(c1)N(C(=O)C1CCCCCC1)CCO2` [Example 83, 5-[4-Cycloheptanecarbonyl-3,4-dihydro-2H-benzo[1,4]oxazin-6-ethylene]-2-thioxo-thiazolidin-4-one], 7.57.
Consider `CC(C(=O)N1CCOc2ccc(C=C3SC(=S)NC3=O)cc21)c1ccccc1` (stereo not drawn) [Example 84, 5-[4-(2-Phenyl-propionyl)-3,4-dihydro-2H-benzo[1,4]oxazin-6-ethylene]-2-thioxo-thiazolidin-4-one], for which the pIC50 was 7.08.
In the case of `CC1CCCC(C(=O)N2CCOc3ccc(C=C4SC(=S)NC4=O)cc32)C1` (stereo not drawn) [Example 85, 5-[4-(3-Methyl-cyclohexanecarbonyl)-3,4-dihydro-2H-benzo[1,4]oxazin-6-ethylene]-2-thioxo-thiazolidin-4-one] it was 7.92; in that of `CC(C)C(C)C(=O)N1CCOc2ccc(C=C3SC(=S)NC3=O)cc21` (stereo not drawn) [Example 86, 5-[4-(2,3-Dimethyl-butyryl)-3,4-dihydro-2H-benzo[1,4]oxazin-6-ethylene]-2-thioxo-thiazolidin-4-one], 6.75.
In the case of `CC1CCCCC1CCC(=O)N1CCOc2ccc(C=C3SC(=S)NC3=O)cc21` (stereo not drawn) [Example 87] it was 6.92; in that of `COc1ccc(C)cc1C(=O)N1CCOc2ccc(C=C3SC(=S)NC3=O)cc21` [Example 88, 5-[4-(2-Methoxy-5-methyl-benzoyl)-3,4-dihydro-2H-benzo[1,4]oxazin-6-ethylene]-2-thioxo-thiazolidin-4-one], 6.33.
As to `Cc1ccc(F)c(C(=O)N2CCOc3ccc(C=C4SC(=S)NC4=O)cc32)c1` [Example 89, 5-[4-(2-Fluoro-5-methyl-benzoyl)-3,4-dihydro-2H-benzo[1,4]oxazin-6-ethylene]-2-thioxo-thiazolidin-4-one], the pIC50 was 6.70.
The result for `CC(C(=O)N1CCOc2ccc(C=C3SC(=S)NC3=O)cc21)C(C)(C)C` (stereo not drawn) [Example 90, 2-Thioxo-5-[4-(2,3,3-trimethyl-butyryl)-3,4-dihydro-2H-benzo[1,4]oxazin-6-ethylene]-2-thioxo-thiazolidin-4-one] reads 5.99; that for `CC1CCCCC1C(=O)N1CCOc2ccc(C=C3SC(=S)NC3=O)cc21` (stereo not drawn) [Example 91, 5-[4-(2-Methyl-cyclohexanecarbonyl)-3,4-dihydro-2H-benzo[1,4]oxazin-6-ethylene]-2-thioxo-thiazolidin-4-one], 7.05; that for `CC(=O)N1CCOc2ccc(C=C3SC(=S)NC3=O)cc21` [Example 92, 5-(4-Acetyl-3,4-dihydro-2H-1,4-benzoxazin-6-ylmethylene)-2-thioxo-thiazolidin-4-one], 7.48.

The values above are taken from patent publication US20040138199A1, “Benzoxazines and derivatives thereof as therapeutic agents” (priority 2002, published 2004).
